This note sets out measurements from patent US7045532B2 (Millennium Pharmaceuticals, Inc., priority 1999, dated 2006).

Read-outs that look alike come from different tables or passages of the source.

In the assay the target is T1, ACE-2 (Homo sapiens, UniProt Q9BYF1).
T1 construct: a stop codon inserted after the serine immediately preceding the transmembrane domain; made in house; host or cells: CHO K1 cells (transient transfection, purified from conditioned medium)
The assay can be described thus: ACE-2 Competitive Substrate Assay (ACS Assay). It counts as biochemical.

Setting [1] is: Ki class, compounds tested in 5% DMSO, 12 compound concentrations, Ki=Kiapp/(1+[S]/Km), read-out: Human ACE-2 Activity.
Where [2] appears, read: Table 3, very good ACE-2 inhibiting compounds, species not given, read-out: ACE-2 Activity, Ki.

T1 sequence (Q9BYF1 18-740 limits assumed): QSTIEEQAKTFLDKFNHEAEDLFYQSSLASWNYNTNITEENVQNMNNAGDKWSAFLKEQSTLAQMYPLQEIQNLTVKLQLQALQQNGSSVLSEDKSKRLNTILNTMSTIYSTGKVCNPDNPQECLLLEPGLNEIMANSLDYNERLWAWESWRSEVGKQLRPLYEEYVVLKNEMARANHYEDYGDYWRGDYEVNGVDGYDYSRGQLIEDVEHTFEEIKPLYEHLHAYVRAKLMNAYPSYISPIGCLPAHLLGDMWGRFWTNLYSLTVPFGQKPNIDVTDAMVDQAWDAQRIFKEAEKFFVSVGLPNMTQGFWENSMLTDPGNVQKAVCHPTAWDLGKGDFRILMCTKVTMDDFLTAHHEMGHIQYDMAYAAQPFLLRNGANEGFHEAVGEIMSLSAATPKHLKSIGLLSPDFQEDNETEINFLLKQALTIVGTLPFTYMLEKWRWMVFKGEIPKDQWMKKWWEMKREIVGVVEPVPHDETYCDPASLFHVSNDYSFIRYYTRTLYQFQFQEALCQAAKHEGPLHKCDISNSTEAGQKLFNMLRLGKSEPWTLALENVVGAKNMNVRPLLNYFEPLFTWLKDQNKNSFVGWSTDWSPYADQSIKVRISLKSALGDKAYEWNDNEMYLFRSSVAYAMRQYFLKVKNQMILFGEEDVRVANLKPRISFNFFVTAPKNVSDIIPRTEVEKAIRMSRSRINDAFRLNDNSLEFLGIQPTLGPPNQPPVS

With `C[C@@H](N[C@@H](CCCN)C(=O)O)C(=O)O` [M, 5-Amino-2-(1-carboxy-ethylamino)-pentanoicacid], the Ki (Ki class, compounds tested in 5% DMSO, 12 concentrations, read-out: Human ACE-2 Activity) is above 0.5 µM.
For `CC(C)C[C@H](N[C@@H](CC(=O)Nc1nc2ccc(Cl)cc2s1)C(=O)O)C(=O)O` [MB, (S,S)-2-[1-Carboxy-2-(6-chloro-benzothiazol-2-ylcarbamoyl)-ethylamino]-4-methyl-pentanoic acid], the Ki is below 0.1 µM under setting [1] and below 0.05 µM under setting [2].
For the molecule `Cc1cc2nc(NC(=O)C[C@H](N[C@@H](CC(C)C)C(=O)O)C(=O)O)sc2cc1C` [MC, (S,S)-2-[1-Carboxy-2-(5,6-dimethyl-benzothiazol-2-ylcarbamoyl)-ethylamino]-4-methyl-pentanoic acid], the Ki under setting [1] was above 0.5 µM.
Consider `CC(C)C[C@H](N[C@@H](CC(=O)Nc1nc2c(Cl)cccc2s1)C(=O)O)C(=O)O` [MD, (S,S)-2-[1-Carboxy-2-(4-chloro-benzothiazol-2-ylcarbamoyl)-ethylamino]-4-methyl-pentanoic acid], for which the Ki was below 0.1 µM under setting [1] and below 0.05 µM under setting [2].
As to `CC(C)C[C@H](N[C@@H](Cn1ccn(CCC2CCCCC2)c1=O)C(=O)O)C(=O)O` [ME, (S,S)-2-{1-Carboxy-2-[3-(2-cyclohexyl-ethyl)-2-oxo-2,3-dihydro-imidazol-1-yl]-ethylamino}-4-methyl-pentanoic acid], under setting [1], the Ki fell in the range of 0.1 to 0.5 µM.
On the same count and under the same terms, to `CC(C)C[C@H](N[C@@H](Cn1ccn([C@H](C)c2ccccc2)c1=O)C(=O)O)C(=O)O` [MF, 2-[1-Carboxy-2-[2-oxo-3-(1-phenyl-ethyl)-2,3-dihydro-imidazol-1-yl]-ethylamino]-4-methyl-pentanoic acid] belongs above 0.5 µM; to `CC(C)C[C@H](N[C@@H](CC(=O)Nc1nc2cc(Cl)c(Cl)cc2s1)C(=O)O)C(=O)O` [MG, (S,S)-2-[1-Carboxy-2-(5,6-dichloro-benzothiazol-2-ylcarbamoyl)-ethylamino]-4-methyl-pentanoic acid], 0.1 to 0.5 µM.
On the same count and under the same terms, to `CC(C)C[C@H](N[C@@H](Cn1ccn(CC2CC2)c1=O)C(=O)O)C(=O)O` [MH, 2-[1-Carboxy-2-(3-cyclopropylmethyl-2-oxo-2,3-dihydro-imidazol-1-yl)-ethylamino]-4-methyl-pentanoic acid] belongs 0.1 to 0.5 µM; to `CC(C)C[C@H](N[C@@H](Cc1cccc(-c2cc(Cl)cc(Cl)c2)c1)C(=O)O)C(=O)O` [MI, (S,S)-2-[1-Carboxy-2-(3,′5′-dichloro-biphenyl-3-yl)-ethylamino]-4-methyl-pentanoic acid], 0.1 to 0.5 µM.
Still for that read-out and setting: to `CC(C)C[C@H](N[C@@H](Cc1cccc(-c2ccsc2)c1)C(=O)O)C(=O)O` [MJ, (S,S)-2-[1-Carboxy-2-(3-thiophen-3-yl-phenyl)-ethylamino]-4-methyl-pentanoic acid] belongs above 0.5 µM; to `COc1cc(OC)cc(-c2cccc(C[C@H](N[C@@H](CC(C)C)C(=O)O)C(=O)O)c2)c1` [MK, (S,S)-2-[1-Carboxy-2-(3′,5′-dimethoxy-biphenyl-3-yl)-ethylamino]-4-methyl-pentanoic acid], above 0.5 µM.
As for `COC(=O)[C@H](Cc1ccn(C(=O)OC(C)(C)C)n1)N[C@@H](CC(C)C)C(=O)OCc1ccccc1` [ML, 3-[2-(1-Benzyloxycarbonyl3-methyl-butylamino)-2-methoxycarbonyl-ethyl]-pyrazole-1-carboxylicacid tert-butyl ester], the Ki under setting [1] is above 0.5 µM.
Regarding `COC(=O)[C@H](Cc1cncn1Cc1cc(Cl)cc(Cl)c1)N[C@@H](CC(C)C)C(=O)OC` [MM, 2-{2-[3-(3,5-Dichloro-benzyl)-3H-imidazol-4-yl]-1-methoxycarbonyl-ethylamino}-4-methyl-pentanoic acidmethyl ester], the Ki is, setting by setting: under setting [1], below 0.1 µM; under setting [2], below 0.05 µM.
`CC(C)C[C@H](N[C@@H](Cn1ccn(C2CCCCC2)c1=O)C(=O)O)C(=O)O` [MN, 2-[1-Carboxy-2-(3-cyclohexyl-2-oxo-2,3-dihydro-imidazol-1-yl)-ethylamino]-4-methyl-pentanoic acid]: the Ki under setting [1] fell in the range of 0.1 to 0.5 µM.
The same measure, in the same setting: to `COc1ccc2nc(NC(=O)C[C@H](N[C@@H](CC(C)C)C(=O)O)C(=O)O)sc2c1` [MO, (S,S)-2-[1-Carboxy-2-(6-methoxy-benzothiazol-2-ylcarbamoyl)-ethylamino]-4-methyl-pentanoic acid] belongs 0.1 to 0.5 µM.
Take `CCOc1ccc2nc(NC(=O)C[C@H](N[C@@H](CC(C)C)C(=O)O)C(=O)O)sc2c1` [MP, (S,S)-2-[1-Carboxy-2-(6-ethoxy-benzothiazol-2-ylcarbamoyl)-ethylamino]-4-methyl-pentanoic acid]: the Ki under setting [1] was 0.1 to 0.5 µM.
Regarding `CC(C)C[C@H](N[C@@H](CC(=O)Nc1nc2ccc(F)cc2s1)C(=O)O)C(=O)O` [MQ, 2-[1-Carboxy-2-(6-fluoro-benzothiazol-2-ylcarbamoyl)-ethylamino]-4-methyl-pentanoic acid], the Ki by setting is: under setting [1], below 0.1 µM; under setting [2], below 0.05 µM.
For `CC(C)C[C@H](N[C@@H](CC(=O)Nc1nc2ccc(Br)cc2s1)C(=O)O)C(=O)O` [MR, 2-[2-(6-Bromo-benzothiazol-2-ylcarbamoyl]-1-carboxy-ethylamino]-4-methyl-pentanoic acid], in that order: below 0.1 µM and below 0.05 µM.
Regarding `CC(C)C[C@H](N[C@@H](Cn1ccn(-c2cc(F)cc(F)c2)c1=O)C(=O)O)C(=O)O` [MS, 2-{1-Carboxy-2-[3-(3,5-difluoro-phenyl)-2-oxo-2,3-dihydro-imidazol-1-yl]-ethylamino}-4-methyl-pentanoic acid], the Ki under setting [1] lay within 0.1 to 0.5 µM.
Still for that read-out and setting: for `CC(C)C[C@H](N[C@@H](CNC(=O)c1ccc2ccccc2c1)C(=O)O)C(=O)O` [MT, 2-(1-Carboxy-2-[(naphthalene-2-carbonyl)amino]-ethylamino)-4-methyl-pentanoic acid] the value was above 0.5 µM; for `CC(C)C[C@H](N[C@@H](CNS(=O)(=O)c1ccc2ccccc2c1)C(=O)O)C(=O)O` [MU, 2-[1-Carboxy-2-(naphthalene-2-sulfonylamino)-ethylamino]-4-methyl-pentanoic acid], above 0.5 µM.
For the molecule `CC(C)C[C@H](N[C@@H](Cc1ccnn1Cc1cc(Cl)cc(Cl)c1)C(=O)O)C(=O)O` [MV, 2-{1-carboxy-2-[2-(3,5-dichlorobenzyl)-2H-pyrazol-3-yl]-ethylamino}-4-methyl-pentanoic acid], the Ki runs as follows: under setting [1], below 0.1 µM; under setting [2], below 0.05 µM.
Take `CC(C)C[C@H](N[C@@H](Cc1cccc(-c2cccc3ccccc23)c1)C(=O)O)C(=O)O` [MX, (S,S)-2-[1-Carboxy-2-(3-naphthalen-1-yl-phenyl)-ethylamino]-4-methyl-pentanoic acid]: the Ki under setting [1] was above 0.5 µM.
Regarding `CCOC(=O)[C@H](Cc1cncn1Cc1cc(Cl)cc(Cl)c1)N[C@@H](CC(C)C)C(=O)O` [MY, (S,S) 2-{2-[3-(3,5-Dichloro-benzyl)-3H-imidazol-4-yl]-1-ethoxycarbonyl-ethylamino}-4-methyl-pentanoic acid], under setting [1], the Ki fell in the range of 0.1 to 0.5 µM.
For `CC(C)C[C@@H](N[C@H](Cc1cncn1Cc1cc(Cl)cc(Cl)c1)C(=O)O)C(=O)O` [MZ, (R,R)-2-{1-Carboxy-2-[3-(3,5-dichloro-benzyl)-3H-imidazol-4-yl]-ethylamino}-4-methyl-pentanoic acid], under setting [1], the Ki lay within 0.1 to 0.5 µM.
Still for that read-out and setting: for `CC(C)C[C@H](N[C@@H](Cc1cccc(OCc2cc(F)cc(F)c2)c1)C(=O)O)C(=O)O` [NA, 2-[1-Carboxy-2-[3-(3,5-difluoro-benzyloxy)-phenyl]-ethylamino]-4-methyl-pentanoic acid] the value was 0.1 to 0.5 µM.
